Target: Transient receptor potential cation channel subfamily A member 1 (Homo sapiens, UniProt O75762)
Experiment: FLIPR Assay of Inhibitory Activity on Human TRPA1
Experimental: Table 3.1: The cell analysis plate was placed in an FLIPR instrument ([…]), and the compound in the compound plate was added to the corresponding hole on the cell analysis plate (First addition) via an automatic program, and the calcium ion fluorescence signal was recorded to determine whether the compound had agonistic activity. After 10 minutes, CaCl2 (Second addition) was added a final concentration of 3 mM to each well to stimulate intracellular calcium flux signals. Ca++-dependent fluorescence signal was monitored continuously at 538 nm wavelength to analyze the inhibitory activity of the compounds.

Sequence of Transient receptor potential cation channel subfamily A member 1 (O75762 whole entry): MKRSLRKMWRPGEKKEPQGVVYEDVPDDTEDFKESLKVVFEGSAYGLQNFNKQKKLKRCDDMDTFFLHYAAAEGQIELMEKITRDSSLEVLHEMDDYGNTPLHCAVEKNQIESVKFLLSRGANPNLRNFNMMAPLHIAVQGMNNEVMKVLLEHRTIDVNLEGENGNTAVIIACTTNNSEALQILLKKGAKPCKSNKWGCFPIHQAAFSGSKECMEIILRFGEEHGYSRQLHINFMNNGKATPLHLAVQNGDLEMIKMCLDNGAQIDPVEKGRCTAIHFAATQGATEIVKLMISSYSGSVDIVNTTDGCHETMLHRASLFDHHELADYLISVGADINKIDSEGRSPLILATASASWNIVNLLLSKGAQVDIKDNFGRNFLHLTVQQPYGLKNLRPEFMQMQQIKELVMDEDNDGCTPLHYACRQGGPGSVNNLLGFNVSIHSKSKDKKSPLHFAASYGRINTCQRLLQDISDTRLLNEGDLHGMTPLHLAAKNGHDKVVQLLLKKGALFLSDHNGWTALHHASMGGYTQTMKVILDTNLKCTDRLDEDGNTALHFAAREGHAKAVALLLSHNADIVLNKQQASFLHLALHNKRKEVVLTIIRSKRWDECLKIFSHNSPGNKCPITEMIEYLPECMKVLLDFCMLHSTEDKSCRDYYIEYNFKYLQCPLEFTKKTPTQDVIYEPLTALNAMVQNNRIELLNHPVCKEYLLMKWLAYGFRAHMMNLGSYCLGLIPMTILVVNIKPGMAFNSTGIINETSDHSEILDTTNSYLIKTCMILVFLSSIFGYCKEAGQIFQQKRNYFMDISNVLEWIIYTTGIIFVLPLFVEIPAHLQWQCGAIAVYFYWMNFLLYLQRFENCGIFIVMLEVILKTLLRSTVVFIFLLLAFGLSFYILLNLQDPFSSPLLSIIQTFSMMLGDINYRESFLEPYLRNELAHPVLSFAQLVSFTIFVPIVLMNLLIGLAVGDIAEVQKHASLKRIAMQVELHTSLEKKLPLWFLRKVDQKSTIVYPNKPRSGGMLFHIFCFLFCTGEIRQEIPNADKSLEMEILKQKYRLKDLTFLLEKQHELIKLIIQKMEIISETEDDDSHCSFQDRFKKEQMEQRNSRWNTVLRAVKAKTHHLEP

| IC50 [nM] | Compound |
| --- | --- |
| 56 | O=C(N1CCN(c2cccc(C(F)(F)F)n2)CC1)C1(Nc2ccc(Cl)cc2)CCCC1 [US12391660, Compound 20] |
| 875 | O=C(N1CCN(c2ccc(C(F)(F)F)nn2)CC1)C1(Nc2ccc([N+](=O)[O-])cc2)CCCC1 [US12391660, Compound 21] |
| 280 | CN(c1ccc(C#N)cc1)C1(C(=O)N2CCC(C(C)(C)C)CC2)CCCC1 [US12391660, Compound 44] |
| 2870 | Cn1cc(OC2(C(=O)N3CCN(c4ccc(C(F)(F)F)cn4)CC3)CCCC2)nc1C#N [US12391660, Compound 61] |

— BindingDB's records for patent US12391660 (Hangzhou Westan Pharmaceutical Technology Co., 2025)
